The numbers were not newly measured in patent US10314914B2, “Iodophor composition and methods of use” (Veloce BioPharma, LLC, priority 2015, dated 2019), which cites them from elsewhere.

The conditions of this data set: 50% solution of DMSO in water.

On to `C[C@]12CCC(=O)C=C1CC[C@@H]1[C@@H]2[C@@H](O)C[C@@]2(C)[C@H]1CC[C@]2(O)C(=O)CO` [hydrocortisone], for which the rate of penetration entry was “markedly enhanced”.
